Ki data for 36 compounds are collected here from patent US8173635B2, “Kinase inhibitors” (Vertex Pharmaceuticals Incorporated, priority 2007, dated 2012).

What all share (type): biochemical
The target of experiment [1] is PKC delta kinase (Homo sapiens, UniProt Q05655). Put plainly: PKC delta kinase inhibition, coupled-enzyme NADH absorbance assay (Ki). To be noted: 150 μM ATP, 46 nM PKC delta, 30° C.; read-out: Ki PKC delta. The gist of the method: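 Assay buffer was 100 mM HEPES pH 7.5, 10 mM MgCl2, 25 mM NaCl, 0.1 mM EDTA, 0.01% Brij. Enzyme buffer was equilibrated with compound in DMSO for 10 min at 30 °C. Ki values were derived by non-linear regression of initial rate data.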

In experiment [2] the target is PKC theta kinase (Homo sapiens, UniProt Q04759). Kind of experiment: PKC theta kinase inhibition, coupled-enzyme NADH absorbance assay (Ki). To be noted: 240 μM ATP, 18 nM PKC theta, 30° C.; read-out: Ki PKC theta. The gist of the method: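 Coupled-enzyme kinase assay following NADH absorbance at 340 nm, in 100 mM HEPES pH 7.5, 10 mM MgCl2, 25 mM NaCl, 0.1 mM EDTA, 0.01% Brij. Compound in DMSO preincubated with enzyme 10 min at 30 °C. Ki from initial rates by non-linear regression.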

Experiment [3] deals with PKC alpha kinase (Homo sapiens, UniProt P17252). Put plainly: PKC alpha kinase inhibition, coupled-enzyme NADH absorbance assay (Ki). To be noted: 130 μM ATP, 4.5 nM PKC alpha, 30° C.; read-out: Ki PKC alpha.

PKC delta kinase, sequence (Q05655 whole entry): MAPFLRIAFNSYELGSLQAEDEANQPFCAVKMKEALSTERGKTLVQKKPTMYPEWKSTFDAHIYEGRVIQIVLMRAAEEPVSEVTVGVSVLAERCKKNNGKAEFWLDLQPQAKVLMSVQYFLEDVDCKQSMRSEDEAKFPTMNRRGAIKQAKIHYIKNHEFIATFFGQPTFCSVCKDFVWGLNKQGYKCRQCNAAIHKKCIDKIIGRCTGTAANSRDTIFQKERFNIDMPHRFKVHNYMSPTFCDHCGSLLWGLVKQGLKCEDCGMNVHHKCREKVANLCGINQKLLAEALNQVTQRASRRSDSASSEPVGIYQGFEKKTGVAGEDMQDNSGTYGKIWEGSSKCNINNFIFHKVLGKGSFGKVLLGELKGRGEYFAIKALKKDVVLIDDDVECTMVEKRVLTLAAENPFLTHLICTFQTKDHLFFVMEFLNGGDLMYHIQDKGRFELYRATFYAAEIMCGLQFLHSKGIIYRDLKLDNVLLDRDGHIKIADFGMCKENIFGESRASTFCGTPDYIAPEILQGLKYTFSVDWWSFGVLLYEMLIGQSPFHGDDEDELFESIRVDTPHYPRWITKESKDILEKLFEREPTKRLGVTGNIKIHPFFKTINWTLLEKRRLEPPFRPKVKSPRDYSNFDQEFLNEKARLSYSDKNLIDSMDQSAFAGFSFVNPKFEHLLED
PKC theta kinase, sequence (Q04759 whole entry): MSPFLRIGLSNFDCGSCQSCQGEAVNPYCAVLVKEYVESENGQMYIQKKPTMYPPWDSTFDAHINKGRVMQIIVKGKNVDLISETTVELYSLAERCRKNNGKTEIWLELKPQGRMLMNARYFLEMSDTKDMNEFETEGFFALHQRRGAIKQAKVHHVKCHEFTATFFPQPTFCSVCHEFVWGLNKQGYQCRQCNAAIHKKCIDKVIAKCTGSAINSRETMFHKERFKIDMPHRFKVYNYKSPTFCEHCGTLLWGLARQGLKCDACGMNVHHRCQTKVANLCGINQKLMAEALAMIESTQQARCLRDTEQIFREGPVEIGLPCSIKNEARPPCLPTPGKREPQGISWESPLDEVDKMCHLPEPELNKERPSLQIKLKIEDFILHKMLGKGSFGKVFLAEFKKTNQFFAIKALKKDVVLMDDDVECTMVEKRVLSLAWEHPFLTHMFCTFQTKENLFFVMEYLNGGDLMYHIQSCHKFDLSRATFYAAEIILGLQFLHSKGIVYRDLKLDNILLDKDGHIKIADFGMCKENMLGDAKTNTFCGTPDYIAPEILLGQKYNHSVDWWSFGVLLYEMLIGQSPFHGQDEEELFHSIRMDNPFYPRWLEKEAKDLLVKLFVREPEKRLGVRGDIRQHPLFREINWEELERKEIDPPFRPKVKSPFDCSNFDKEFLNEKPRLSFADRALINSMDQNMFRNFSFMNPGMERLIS

In the case of `CC(C#N)(Cc1ccccn1)c1cccc(-c2ccnc3[nH]ncc23)c1` (stereo not drawn) [Compound 115], the Ki in experiment [1] is greater than 2 µM; in experiment [2], greater than 0.7 µM; in experiment [3], greater than 1.2 µM.
As for `CC(C#N)(Cc1cccnc1)c1cccc(-c2ccnc3[nH]ncc23)c1` (stereo not drawn) [Compound 116], the values for the Ki in experiment [1], in experiment [2] and in experiment [3] were greater than 2 µM, greater than 0.7 µM and greater than 1.2 µM, respectively.
For `CCC(C)(C#N)c1cc(-c2ccnc3[nH]ncc23)cc(C(F)(F)CCC2CCCC2)c1` (stereo not drawn) [Compound 117] the same measures were greater than 2 µM, greater than 0.7 µM and greater than 1.2 µM.
For `CCC(C)(C#N)c1cc(-c2ccnc3[nH]ncc23)cc(C(F)(F)CCC2CCCCC2)c1` (stereo not drawn) [Compound 118] the same measures were greater than 2 µM, greater than 0.7 µM and greater than 1.2 µM.
For `CCC(C)(C#N)c1cc(-c2ccnc3[nH]ncc23)cc(C(F)(F)CC2CCCCC2)c1` (stereo not drawn) [Compound 119] the same measures were greater than 2 µM, greater than 0.7 µM and greater than 1.2 µM.
For the compound `CCC(C)(C#N)c1cc(C=O)cc(-c2ccnc3[nH]ncc23)c1` (stereo not drawn) [Compound 120], the Ki in experiment [1] is greater than 2 µM; in experiment [2], less than 0.5 µM; in experiment [3] it was greater than 1.2 µM.
On to `CCC(C)(C#N)c1cc(CO)cc(-c2ccnc3[nH]ncc23)c1` (stereo not drawn) [Compound 121], for which the Ki in experiment [1] was greater than 2 µM; in experiment [2] it was less than 0.5 µM; in experiment [3] it was greater than 1.2 µM.
With `N#CC1(c2cc(-c3ccnc4[nH]ncc34)cc(C(F)(F)CN)c2)CC1` [Compound 122], the Ki in experiment [1] is less than 2.8 µM; in experiment [2], less than 0.05 µM; in experiment [3] it was less than 2.8 µM.
With `CNCC(F)(F)c1cc(-c2ccnc3[nH]ncc23)cc(C2(C#N)CC2)c1` [Compound 123], the values for the Ki in experiment [1], in experiment [2] and in experiment [3] were less than 2.8 µM, less than 0.05 µM and less than 2.8 µM, respectively.
For the compound `CCC(C)(C#N)c1cc(/C=C/C#N)cc(-c2ccnc3[nH]ncc23)c1` (stereo not drawn) [Compound 124], the Ki in experiment [1] is greater than 2 µM; in experiment [2] it was greater than 0.7 µM; in experiment [3], greater than 1.2 µM.
Consider `CCCc1cc(-c2ccnc3[nH]ncc23)cc(C2(CC#N)CCC2)c1` [Compound 125], for which the results for the Ki in experiment [1], in experiment [2] and in experiment [3] were greater than 2 µM, less than 0.5 µM and greater than 1.2 µM, respectively.
For `CCC(C)(C#N)c1cc(CC#N)cc(-c2ccnc3[nH]ncc23)c1` (stereo not drawn) [Compound 126], the Ki in experiment [1] is greater than 2 µM; in experiment [2], less than 0.5 µM; in experiment [3], greater than 1.2 µM.
In the case of `CCC(C)(C#N)c1cc(CCN)cc(-c2ccnc3[nH]ncc23)c1` (stereo not drawn) [Compound 127], the Ki is greater than 2 µM in experiment [1], less than 0.5 µM in experiment [2] and greater than 1.2 µM in experiment [3].
For `N#CC1(c2cc(CCN)cc(-c3ccnc4[nH]ncc34)c2)CC1` [Compound 128], the Ki was greater than 2 µM in experiment [1], less than 0.5 µM in experiment [2] and greater than 1.2 µM in experiment [3].
For `CC(CN)(CC1CC1)c1cccc(-c2ccnc3[nH]ncc23)c1` (stereo not drawn) [Compound 129] the same measures were less than 0.05 µM, less than 0.05 µM and less than 0.5 µM.
For `CCCc1cc(-c2ccnc3[nH]ncc23)cc(C(C)(CC)CN)c1` (stereo not drawn) [Compound 130], the Ki is less than 2.8 µM in experiment [1], less than 0.05 µM in experiment [2] and less than 2.8 µM in experiment [3].
For `CCc1cc(-c2ccnc3[nH]ncc23)cc(C(C)(CC)CN)c1` (stereo not drawn) [Compound 131], the Ki was less than 2.8 µM in experiment [1], less than 0.05 µM in experiment [2] and less than 0.5 µM in experiment [3].
On the same counts, the results for `CCc1ccc(-c2ccnc3[nH]ncc23)cc1C(C)(C)CN` [Compound 132] are less than 2.8 µM, less than 0.5 µM and less than 2.8 µM.
For `CCC(C)(CN)c1cc(Cl)cc(-c2ccnc3[nH]ncc23)c1` (stereo not drawn) [Compound 133] the same measures were less than 0.5 µM, less than 0.05 µM and less than 0.5 µM.
For the compound `C=CCC(C)(CN)c1cccc(-c2ccnc3[nH]ncc23)c1` (stereo not drawn) [Compound 134], the Ki was less than 0.5 µM in experiment [1], less than 0.05 µM in experiment [2] and less than 0.5 µM in experiment [3].
On to `C#CCC(C)(CN)c1cccc(-c2ccnc3[nH]ncc23)c1` (stereo not drawn) [Compound 135], for which the Ki in experiment [1], in experiment [2] and in experiment [3] was less than 0.05 µM throughout.
For `CC(F)c1cc(-c2ccnc3[nH]ncc23)cc(C(C)(C)CN)c1` (stereo not drawn) [Compound 136], the values for the Ki in experiment [1], in experiment [2] and in experiment [3] were less than 2.8 µM, less than 0.05 µM and less than 2.8 µM, respectively.
Take `CCC(C)(CN)c1cc(CC(C)C)cc(-c2ccnc3[nH]ncc23)c1` (stereo not drawn) [Compound 137]: the Ki in experiment [1] was greater than 2.8 µM; in experiment [2], less than 0.5 µM; in experiment [3] it was greater than 2.8 µM.
For `CCC(C)(CN(C)C)c1cccc(-c2ccnc3[nH]ncc23)c1` (stereo not drawn) [Compound 138, 2-(3-(1H-pyrazolo[3,4-b]pyridin-4-yl)phenyl)-N,N,2-trimethylbutan-1-amine], the Ki in experiment [1] was less than 2.8 µM; in experiment [2], less than 0.5 µM; in experiment [3] it was less than 2.8 µM.
As for `CCC(C)(CN)c1cc(-c2ccnc3[nH]ncc23)cc(C(F)(F)F)c1` (stereo not drawn) [Compound 139], the Ki in experiment [1] was less than 0.5 µM; in experiment [2] it was less than 0.05 µM; in experiment [3] it was less than 0.5 µM.
For `NCC1(c2cc(-c3ccnc4[nH]ncc34)cc(C(F)(F)F)c2)CCC1` [Compound 140], the Ki in experiment [1] was less than 2.8 µM; in experiment [2], less than 0.5 µM; in experiment [3], less than 2.8 µM.
On to `CCC(C)(CNC)c1cccc(-c2ccnc3[nH]ncc23)c1` (stereo not drawn) [Compound 141], for which the results for the Ki in experiment [1], in experiment [2] and in experiment [3] were less than 0.5 µM, less than 0.05 µM and less than 0.5 µM, respectively.
As to `COc1cc(-c2ccnc3[nH]ncc23)cc(C(C)(C)CN)c1` [Compound 142], the Ki was less than 2.8 µM in experiment [1], less than 0.5 µM in experiment [2] and less than 2.8 µM in experiment [3].
For `C/C=C\c1cc(-c2ccnc3[nH]ncc23)cc(C(C)(CC)CN)c1` (stereo not drawn) [Compound 143], the Ki in experiment [1] was less than 0.5 µM; in experiment [2], less than 0.5 µM; in experiment [3], less than 2.8 µM.
On to `CCC(C)(CN)c1cc(C)cc(-c2ccnc3[nH]ncc23)c1` (stereo not drawn) [Compound 144], for which the figures for the Ki in experiment [1], in experiment [2] and in experiment [3] were less than 0.5 µM, less than 0.05 µM and less than 0.5 µM, respectively.
`Cc1cc(-c2ccnc3[nH]ncc23)cc(C2(CN)CCC2)c1` [Compound 145]: the Ki was less than 2.8 µM in experiment [1], less than 0.05 µM in experiment [2] and less than 2.8 µM in experiment [3].
In the case of `COCCC(C)(CN)c1cccc(-c2ccnc3[nH]ncc23)c1` (stereo not drawn) [Compound 146], the Ki was less than 0.5 µM in experiment [1], less than 0.05 µM in experiment [2] and less than 2.8 µM in experiment [3].
On the same counts, the results for `CCCc1cc(-c2ccnc3[nH]ncc23)cc(C2(CN)CCCC2)c1` [Compound 147] are greater than 2.8 µM, less than 0.5 µM and greater than 2.8 µM.
Take `CC(CN)(CC(F)F)c1cccc(-c2ccnc3[nH]ncc23)c1` (stereo not drawn) [Compound 148]: the results for the Ki in experiment [1], in experiment [2] and in experiment [3] were less than 0.05 µM, less than 0.05 µM and less than 0.5 µM, respectively.
With `CC(CN)(Cc1ccccc1)c1cccc(-c2ccnc3[nH]ncc23)c1` (stereo not drawn) [Compound 149], the Ki is less than 0.5 µM in experiment [1], less than 0.05 µM in experiment [2] and less than 0.5 µM in experiment [3].
In the case of `COCC(C)(CN)c1cccc(-c2ccnc3[nH]ncc23)c1` (stereo not drawn) [Compound 150], the Ki in experiment [1] is less than 0.5 µM; in experiment [2], less than 0.05 µM; in experiment [3], less than 2.8 µM.
